The results in this text go back to US11739350B2 (priority 2018, dated 2023).

The assay deals with HPAFII tumours. More on the design: species or system SCID mice. Conditions: mouse, in vivo, ip.

In the case of GSK126, the tumor volumes is 1609.3 mm^3.
